# Measurements reported in patent US11950596B2, “Methods of protecting seeds from oxidants and microorganisms” (The United States of America, as represented by the …, priority 2020, dated 2024).
# Where two headings read alike, the source gives them in different places. Marks after values point to notes of the source that are not given here.
# Legend:
# [1] = system: A. tumefaciens or E. coli; assay: Heat-sensitizing bioassay of OG, average MBC of bacteria; format: cell-based, Agrobacterium tumefaciens, Escherichia coli; settings: 90 seconds
# Protocol: (§1) As described in A. flavus 3357 test (see above), microfuge tubes were treated with mild heat (57.5° C.) or maintained at RT (22.0° C.) (90 seconds). After heat treatments, entire volume (200 μL) from each microfuge tube was spread onto fresh recovery LB agar (for bacteria) or PDA (for fungi), and plates were incubated at the optimum temperature for respective microorganisms (i.e., 35° C. for Aspergillus, 37° C. for E. coli, 28° C. for Penicillium/A. tumefaciens, respectively). The growth/survival of test microorganisms were monitored after 48 to 72 hrs of incubation.
# Heat-sensitizing activity of OG against bacteria (A. tumefaciens, E. coli): Heat-sensitizing activity of OG was also investigated against bacterial cells (i.e., E. coli and plant-pathogenic A. tumefaciens). […] (Table 4; FIG. 2).
# P. italicum 983 = assay: Heat-sensitizing bioassay of OG (MFC) in other fungi; format: cell-based, Penicillium italicum; settings: 90 seconds
# Protocol: as §1
# (§2) Heat-sensitizing activity of OG against other fungi: Heat-sensitizing activity of OG was then investigated in other fungi (five Aspergillus strains and seven Penicillium strains) including fungicide resistant strains (i.e., P. expansum FR2, FR3 resistant to the conventional fungicide fludioxonil) (see Table 1).
# P. expansum W1 = assay: as above; format: cell-based; settings: Penicillium expansum, 90 seconds
# Protocol: as §1, §2
# P. expansum FR3 = assay: as above; format: cell-based; settings: Penicillium expansum, fludioxonil resistant mutant
# Protocol: as §1, §2
# P. expansum FR2 = assay: as above; format: cell-based; settings: Penicillium expansum, fludioxonil resistant mutant
# Protocol: as §1, §2
# P. chrysogenum 824 = assay: as above; format: cell-based, Penicillium chrysogenum; settings: 90 seconds
# Protocol: as §1, §2
# [2] = system: twelve fungi (Aspergillus and Penicillium); assay: Heat-sensitizing bioassay of OG, average MFC of twelve fungi; format: cell-based; settings: 90 seconds; for MFC: read-out: average MFC of OG from twelve fungi
# Protocol: as §1, §2
# (RT) to 57.5° C. (mild heat).
# [3] = system: Brassica rapa Pekinensis seeds; assay: Seed disinfection bioassay, germination of treated cabbage seeds; format: in vivo; settings: for No. of seedlings germinated: 12 seeds; for % Seed germination: mean over 20/50° C. and 20/30 min
# Protocol: (§3) Antifungal seed disinfection bioassays using OG: Effect of OG plus mild heat hurdle technology on the level of seed sanitation (Brassica rapa Pekinensis; Chinese cabbage hybrid) was evaluated. Twelve cabbage seeds (per treatment), unsterilized, were transferred to each 1.5 mL microcentrifuge tube filled with 1 mL (final volume) distilled water, without or with A. flavus (1×10^5 CFU/mL): (1) No OG, no A. flavus inoculum, 20 or 30 min, 20° C.; (2) No OG, no A. flavus inoculum, 20 or 30 min, 50° C.; (3) No OG, w/A. flavus, 20 or 30 min, 20° C.; (4) No OG, w/A. flavus, 20 or 30 min, 50° C.; (5) OG 2 mM, w/A. flavus, 20 or 30 min, 20° C., (6) OG 2 mM, w/A. flavus, 20 or 30 min, 50° C., (7) OG 3 mM, w/A. flavus, 20 or 30 min, 20° C.; (8) OG 3 mM, w/A. flavus, 20 or 30 min, 50° C.; (9) OG 4 mM, w/A. flavus, 20 or 30 min, 20° C.; and (10) OG 4 mM, w/A. flavus, 20 or 30 min, 50° C. After each treatment, the treated seeds (total 12 seeds per treatment) were transferred to PDA and the plates were incubated in the dark at room temperature (RT; 20° C.) for seed germination. After seed germination, the growth of seedlings and fungal germination on the surfaces of germinated seeds were monitored up to 7 days (RT).
# (§4) Seed disinfection via heat-sensitizing activity of OG: Heat-sensitizing capacity of OG was investigated further with crop seeds (Brassica rapa Pekinensis; Chinese cabbage hybrid) contaminated with A. flavus 3357 on the seed surfaces. OG (0, 2, 3, 4 mM) and mild heat (50° C.; Control: 20° C.) were co-applied for 20 to 30 minutes, and the rates of seed germination were also determined.
# A. brasiliensis 16404 = assay: Heat-sensitizing bioassay of OG (MFC) in other fungi; format: cell-based, Aspergillus brasiliensis; settings: 90 seconds
# Protocol: as §1, §2
# P. griseofulvum 2159 = assay: as above; format: cell-based, Penicillium griseofulvum; settings: 90 seconds
# Protocol: as §1, §2
# A. flavus 4212 = assay: as above; format: cell-based, Aspergillus flavus; settings: 90 seconds
# Protocol: as §1, §2
# A. flavus 3357 = assay: Antifungal seed disinfection bioassay (OG plus mild heat), A. flavus infection of cabbage seeds; format: in vivo, Aspergillus flavus; settings: for No. of seedlings infected: 12 seeds; for % A. flavus infection: mean over 20/50° C. and 20/30 min
# Protocol: as §3, §4
# [4] = OG as low as 3 mM, mild heat 50° C., 20 min
structure (smiles),measurement,setting,value
CCCCCCCCOC(=O)c1cc(O)c(O)c(O)c1 [Octyl gallate],MBC,[1]; 22° C.,250 µM
same,MBC,[1]; 57.5° C.,75 µM
same,average MBC of OG,"[1]; 57.5° C., listed as OG",75* μM
same,MFC,"P. italicum 983; Penicillium italicum, 983, 22.0° C.",200 µM
same,MFC,"P. italicum 983; Penicillium italicum, 983, 57.5° C.",100 µM
same,MFC,"P. expansum W1; W1, 22.0° C.",> 300 µM
same,MFC,"P. expansum W1; W1, 57.5° C.",160 µM
same,MFC,"P. expansum FR3; FR3, read-out: MFC of OG, 22.0° C., 90 seconds",> 300 µM
same,MFC,"P. expansum FR3; FR3, read-out: MFC of OG, 57.5° C., 90 seconds",160 µM
same,MFC,"P. expansum FR2; FR2, read-out: MFC of OG, 22.0° C., 90 seconds",> 300 µM
same,MFC,"P. expansum FR2; FR2, read-out: MFC of OG, 57.5° C., 90 seconds",190 µM
same,MFC,"P. chrysogenum 824; Penicillium chrysogenum, 824, 22.0° C.",250 µM
same,MFC,"P. chrysogenum 824; Penicillium chrysogenum, 824, 57.5° C.",130 µM
same,MFC,"[2]; 22.0° C., listed as OG",>283.3 µM
same,average MFC of OG from twelve fungi,"[2]; 57.5° C., listed as OG",175.8 (p < 0.005) μM
same,MFC,"[2]; Aspergillus, 22.0° C.",> 283 µM
same,MFC,"[2]; Aspergillus, 57.5° C.",176 µM
same,No. of seedlings germinated,"[3]; OG 2 mM, 20° C., 20 min",12
same,No. of seedlings germinated,"[3]; OG 2 mM, 20° C., 30 min",12
same,No. of seedlings germinated,"[3]; OG 2 mM, 50° C., 20 min",12
same,No. of seedlings germinated,"[3]; OG 2 mM, 50° C., 30 min",10
same,% Seed germination,[3]; OG 2 mM,96 ± 8%
same,No. of seedlings germinated,"[3]; OG 3 mM, 20° C., 20 min",12
same,No. of seedlings germinated,"[3]; OG 3 mM, 20° C., 30 min",12
same,No. of seedlings germinated,"[3]; OG 3 mM, 50° C., 20 min",12
same,No. of seedlings germinated,"[3]; OG 3 mM, 50° C., 30 min",11
same,% Seed germination,[3]; OG 3 mM,98 ± 4%
same,No. of seedlings germinated,"[3]; OG 4 mM, 20° C., 20 min",12
same,No. of seedlings germinated,"[3]; OG 4 mM, 20° C., 30 min",12
same,No. of seedlings germinated,"[3]; OG 4 mM, 50° C., 20 min",11
same,No. of seedlings germinated,"[3]; OG 4 mM, 50° C., 30 min",11
same,% Seed germination,[3]; OG 4 mM,96 ± 5%
same,germination rate of the crop seeds compared to the control,[3]; [4],not affected
same,MFC,"A. brasiliensis 16404; Aspergillus brasiliensis, 16404, 22.0° C.",> 300 µM
same,MFC,"A. brasiliensis 16404; Aspergillus brasiliensis, 16404, 57.5° C.",160 µM
same,MFC,"P. griseofulvum 2159; Penicillium griseofulvum, 2159, 22.0° C.",> 300 µM
same,MFC,"P. griseofulvum 2159; Penicillium griseofulvum, 2159, 57.5° C.",180 µM
same,MFC,"A. flavus 4212; Aspergillus flavus, 4212, 22.0° C.",> 300 µM
same,MFC,"A. flavus 4212; Aspergillus flavus, 4212, 57.5° C.",180 µM
same,No. of seedlings infected,"A. flavus 3357; OG 2 mM, 20° C., 20 min",12
same,No. of seedlings infected,"A. flavus 3357; OG 2 mM, 20° C., 30 min",10
same,No. of seedlings infected,"A. flavus 3357; OG 2 mM, 50° C., 20 min",4
same,No. of seedlings infected,"A. flavus 3357; OG 2 mM, 50° C., 30 min",1
same,% A. flavus infection,A. flavus 3357; OG 2 mM,57 ± 43%
same,No. of seedlings infected,"A. flavus 3357; OG 3 mM, 20° C., 20 min",10
same,No. of seedlings infected,"A. flavus 3357; OG 3 mM, 20° C., 30 min",10
same,No. of seedlings infected,"A. flavus 3357; OG 3 mM, 50° C., 20 min",0^d
same,No. of seedlings infected,"A. flavus 3357; OG 3 mM, 50° C., 30 min",0^d
same,% A. flavus infection,A. flavus 3357; OG 3 mM,42 ± 48%
same,growth of A. flavus contaminated on crop seeds,"A. flavus 3357; OG 3 mM, mild heat 50° C., 20 to 30 minutes",completely inhibited
same,No. of seedlings infected,"A. flavus 3357; OG 4 mM, 20° C., 20 min",12
same,No. of seedlings infected,"A. flavus 3357; OG 4 mM, 20° C., 30 min",11
same,No. of seedlings infected,"A. flavus 3357; OG 4 mM, 50° C., 20 min",0^d
same,No. of seedlings infected,"A. flavus 3357; OG 4 mM, 50° C., 30 min",0^d
same,% A. flavus infection,A. flavus 3357; OG 4 mM,48 ± 56%
same,growth of A. flavus on crop seeds,A. flavus 3357; [4],completely inhibited
